Experiment in all cases: inhibition of tumour cell growth, NCI panel, 48 h
Test [1] relates to A498 renal.
For test [2], the system named is COLO 205 colon.
The test system of test [3] is EKVX NSCLC.
Test [4] relates to SF-268 CNS.
Test [5] deals with SR leukemia.
The subject of test [6] is 786-0 renal.
In test [7] the test system is LOX IMVI melanoma.
Test [8] deals with MCF7 breast.
The subject of test [9] is MDA-N.
Test [10] has as its system HS 578T breast.
Test [11] has as its system MDA-MB-435.

This note sets out measurements from PubChem BioAssay (NCI).

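Briefly, cells in 96-well plates were exposed to five compound concentrations for 48 h, and endpoints were estimated by linear interpolation. GI50 marks 50% less growth. At the TGI there is no net growth.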

In the case of `O=C(OCc1ccccc1)C(Cc1ccccc1)N(Cc1ccccc1)Cc1ccccc1` (stereo not given), the TGI in test [1], in [2], in test [3], in [4] and in test [5] was > 100 µM each time.
Regarding `O=C1c2cccc(NCCNCCO)c2C(=O)c2cccc(NCCNCCO)c21`, the TGI in [6] stood at 3.95 µM; in test [1], 7.44 µM; in test [2], 2.09 µM; in test [3] it was 4.84 µM; in test [7] it was 1.65 µM; in test [8], 10.3 µM. Further, the TGI in test [9] turned out to be 1.55 µM; in [4], 2.15 µM.
`CCCCC/C(C=O)=C\c1ccccc1`: the TGI in [6], in [1], in [2], in test [3], in [10] and in test [7] was > 100 µM each time. Moreover, the TGI in [8], in [11], in test [4] and in [5] was > 100 µM throughout.
As to `O=C(O)c1c2c(cc3c1CC1(Cc4ccccc4C1=O)C3)CCC2` (stereo not given), the TGI was > 100 µM in [6]; 96 µM in test [1]; 54.6 µM in test [2]; > 100 µM in test [3]; > 100 µM in test [10]; > 89.1 µM in test [7]. For the same molecule, the TGI was > 100 µM in [8], 16 µM in test [11], > 100 µM in [4] and 9.56 µM in test [5].
With `Clc1ccc(Cl)c(SCCCN2CCNCC2)c1`, the TGI is 52.1 µM in test [6]; 28.2 µM in test [1]; 38.4 µM in [2]; 34.7 µM in test [3]; 35.9 µM in [10]; 35.8 µM in test [7]. Moreover, the TGI came to 40 µM in test [8], 41.4 µM in test [11] and 33.9 µM in [4].
On to `CCCCN(CCCC)C(=C(C(Cl)=C(Cl)Cl)[N+](=O)[O-])N(CCCC)CCCC`, for which the TGI in [6], in test [1], in [2], in [3], in test [11] and in test [9] was > 100 µM in each case. For the same molecule, the TGI in test [4] is > 100 µM.
Turning to `CCN1C(=O)N(CC)C2Nn3c(s/c(=C4\C(=O)N(C)c5ccccc54)c3=O)=NC21` (stereo not given), the GI50 in test [1] is 1.67 µM; in test [2], 2.26 µM; in test [3], 2.25 µM; in [7], 4.82 µM; in test [8] it was 1.03 µM; in test [4], > 100 µM. Moreover, the GI50 in [5] was 0.978 µM. The TGI in test [1] is 5.68 µM; in test [2], > 100 µM; in test [3], > 100 µM; in [7], > 100 µM; in test [8] it was > 100 µM; in test [4], > 100 µM. Also, the TGI in test [5] is > 100 µM.
`Cc1c2ccncc2c(C)c2c1[nH]c1ccccc12`: the TGI in [1] worked out at 3.62 µM; in test [2], 1.83 µM; in [3] it was 3 µM; in test [10], 5.45 µM; in [7], 4.2 µM; in [8], 2.54 µM. The TGI was 2.21 µM in test [11], 3.38 µM in test [4] and > 100 µM in [5]. For the same molecule, the values for the GI50 in test [10], in test [11] and in test [5] were 1.37 µM, 0.762 µM and 0.819 µM, respectively.
Consider `COc1ccccc1N1CCN(CCCNC(=O)c2cc(Cl)c(N)c(Cl)c2)CC1`, for which the TGI in [6], in [1], in test [3], in [10], in [8] and in [11] was > 100 µM in each case. Further, the TGI in [4] is > 100 µM; in test [5] it was 67.5 µM.
Take `CSC(SC)=C1C(=O)N(c2ccccc2)N=C1C`: the TGI in [6] is 62 µM; in test [1], 90.5 µM; in test [2] it was 36.3 µM; in [3], 54.6 µM; in test [10] it was > 100 µM; in [7], > 100 µM. For the same molecule, the TGI is 46 µM in [8], > 100 µM in test [9] and > 100 µM in [4].
As to `CC(C)(C)C(=O)C(Cc1ccccc1)C(=O)C(C)(C)C`, the TGI in [6], in test [1], in test [2], in test [3], in test [10] and in test [7] was > 100 µM in each case. In addition, the TGI in test [8], in [9], in test [4] and in test [5] was > 100 µM throughout.
Consider `O=C([CH-]C(=O)c1ccccc1)c1ccccc1.O=C([CH-]C(=O)c1ccccc1)c1ccccc1.[O]=[U+2]=[O]`, for which the GI50 was 2.59 µM in [1], 2.11 µM in test [2], 4.78 µM in [3] and 2.7 µM in test [7]. The TGI in test [1] was 7.89 µM; in test [2], 4.71 µM; in test [3], > 100 µM; in test [7] it was > 100 µM.
Consider `O=[N+]([O-])c1ccc(C2=Nc3ccccc3SC(c3ccccc3)C2)cc1` (stereo not given), for which the TGI is 47.9 µM in [1]; 31.8 µM in [2]; 44.3 µM in [3]; 29.3 µM in test [7]; 63.3 µM in test [4]; 45.2 µM in test [5].
Consider `CCCCC#CS(=O)(=O)C(F)(F)F`, for which the TGI in test [1], in [2], in test [3], in [7], in test [8] and in test [4] was > 100 µM each time.
Consider `CC1=CC(=O)CC2(C)CCC(C(C)CC(=O)CC(C)C)CC12` (stereo not given), for which the TGI in test [6] is 31 µM; in [1] it was > 100 µM; in [2], 31.8 µM; in test [3] it was > 100 µM; in test [10], > 100 µM; in test [7], 34.8 µM. Moreover, the TGI in test [8] was 66.8 µM; in test [11], 39 µM; in test [4], > 100 µM; in [5], 41.6 µM.
Turning to `CC(C)(C)OC(=O)n1c(-c2ccccc2F)cc(=O)c2cc3c(cc21)OCO3`, the TGI was > 44.3 µM in test [6]; > 94.7 µM in [1]; > 100 µM in test [3]; 1.41 µM in [10]; > 100 µM in test [8]; > 100 µM in test [11]. The results for the TGI in test [4] and in test [5] were > 100 µM and > 34.6 µM, respectively.
Consider `C[C@]12CC[C@H](O)C=C1CC[C@@H]1[C@@H]2CC[C@]2(C)C(c3ccc(=O)oc3)CC[C@]12O` (stereo not given in full), for which the TGI in [1] was 0.081 µM; in [2] it was 0.188 µM; in [3] it was 0.145 µM; in [7], 0.242 µM; in test [8], 0.173 µM; in test [4], 0.0269 µM.
`O=C(CNCc1ccccc1)Oc1c(Cl)c(Cl)c(Cl)c(Cl)c1Cl`: the TGI in test [6] was > 100 µM; in test [2] it was 85.9 µM; in [3], 48.7 µM; in [10], 50.6 µM; in test [7] it was 74.4 µM; in test [8], > 100 µM. The TGI in test [11] was > 100 µM; in [4], > 100 µM; in [5], 47.9 µM.
In the case of `CN(C)P(=O)(Oc1occc1C(O)Cc1ccccc1)N(C)C` (stereo not given), the TGI in [6], in [1], in test [2], in test [3], in [7] and in test [8] was > 100 µM each time. In addition, the TGI in [11], in test [9] and in test [4] was > 100 µM each time.
Consider `c1csc(-c2c3ccc(=[N+]4CCCCC4)cc-3oc3cc(N4CCCCC4)ccc23)c1`, for which, in test [1], the GI50 is 0.0683 µM and the TGI was determined as 0.453 µM. In addition, in test [10], the GI50 was 0.0563 µM and the TGI is 0.565 µM.
As for `CN1COCc2cc3cc4c(cc3nc21)OCCO4`, the TGI in test [6], in test [1], in [2], in test [3], in test [7] and in [8] was > 100 µM each time. The TGI in test [11], in [9] and in [4] was > 100 µM throughout.
For `O=C(Nc1ccc(-n2cc(-c3ccncc3)c(-c3ccc(O)c(Cl)c3)n2)cc1)Nc1cccc(Cl)c1Cl`, the GI50 is 13.8 µM in test [1]; 4.54 µM in test [2]; 9.99 µM in test [3]; 2.84 µM in test [10]; 3.45 µM in test [7]; 4.2 µM in test [8]. For the same molecule, the GI50 was 4.5 µM in test [11], 18.6 µM in [4] and 30.6 µM in test [5]. Further, the TGI in [1] was > 32.5 µM; in test [2], 13 µM; in test [3] it was > 32.5 µM; in [10] it was 26.5 µM; in [7] it was > 32.5 µM; in [8] it was > 32.5 µM. In addition, the TGI in test [11], in test [4] and in test [5] was > 32.5 µM each time.
